Drawing on ChEMBL document CHEMBL4393657, “Tetrazole hybrids and their antifungal activities” (2019), this text covers MIC for 14 compounds.

Assay type in all cases: functional
The test system of test [1] is Aspergillus niger. Nature of the test: Antifungal activity against Aspergillus niger assessed as reduction in fungal cell growth incubated for 72 hrs by broth microdilution method.
Test [2] relates to Nakaseomyces glabratus. The experiment in a line: Antifungal activity against Candida glabrata assessed as reduction in fungal cell growth incubated for 48 hrs by broth microdilution method.
Test [3] relates to Candida tropicalis. The experiment in a line: Antifungal activity against Candida tropicalis assessed as reduction in fungal cell growth incubated for 48 hrs by broth microdilution method. Background: Broth dilution looks for growth in wells or tubes with falling amounts of substance.
Test [4] deals with Candida parapsilosis. Nature of the test: Antifungal activity against Candida parapsilosis ATCC 22019 assessed as reduction in fungal cell growth incubated for 48 hrs by broth microdilution method. The note with it: Lodderomyces parapsilosis, ATCC 22019, 48 h.
Test [5] relates to Cryptococcus neoformans. The experiment in a line: Antifungal activity against Cryptococcus neoformans LA314 assessed as reduction in fungal cell growth incubated for 48 hrs by broth microdilution method. Particulars: LA314, 48 h.
Test [6] deals with Pichia kudriavzevii. Nature of the test: Antifungal activity against Candida krusei assessed as reduction in fungal cell growth incubated for 48 hrs by broth microdilution method.
The test system of test [7] is Candida albicans. Nature of the test: Antifungal activity against Candida albicans assessed as reduction in fungal cell growth incubated for 48 hrs by broth microdilution method.

≈ marks a conversion by molar mass, not a printed value.

Take `CC(n1nnnc1CCN1CCN(c2ccccc2)CC1)C(O)(Cn1cncn1)c1ccc(F)cc1F` (stereo not drawn): the MIC in test [1], in test [2], in test [3], in test [4], in test [5] and in test [6] was 0.5 to 16 µg/mL (≈ 0.981 to 31.4 µM) each time. Also, in test [7], the MIC was 0.5 to 16 µg/mL (≈ 0.981 to 31.4 µM).
Take `C[C@H](n1nnc(CCN2CCN(c3ccccc3Cl)CC2)n1)[C@](O)(Cn1cncn1)c1ccc(F)cc1F`: the MIC in test [1], in test [2], in test [3], in test [4], in test [5] and in test [6] was 0.25 to 16 µg/mL (≈ 0.46 to 29.4 µM) throughout. Besides, the MIC in test [7] is 0.25 to 16 µg/mL (≈ 0.46 to 29.4 µM).
For `O=[N+]([O-])c1ccc(N2CCN(CCc3nnnn3CC(O)(Cn3cncn3)c3ccc(F)cc3F)CC2)cc1` (stereo not drawn), the MIC in test [1], in test [2], in test [3], in test [4], in test [5] and in test [6] was 0.5 to 16 µg/mL (≈ 0.925 to 29.6 µM) throughout. In test [7], the minimal inhibitory concentration (MIC) lay within 0.5 to 16 µg/mL (≈ 0.925 to 29.6 µM).
As for `OC(Cn1cncn1)(Cn1nnc(CCN2CCN(C(c3ccccc3)c3ccccc3)CC2)n1)c1ccc(F)cc1F` (stereo not drawn), the MIC in test [1], in test [2], in test [3], in test [4], in test [5] and in test [6] was 1 to 16 µg/mL (≈ 1.71 to 27.3 µM) each time. The minimal inhibitory concentration (MIC) in test [7] is 1 to 16 µg/mL (≈ 1.71 to 27.3 µM).
In the case of `COc1ccccc1N1CCN(CCc2nnn([C@@H](C)[C@](O)(Cn3cncn3)c3ccc(F)cc3F)n2)CC1`, the minimum inhibitory concentration (MIC) in test [1], in test [2], in test [3], in test [4], in test [5] and in test [6] was 0.25 to 16 µg/mL (≈ 0.463 to 29.7 µM) each time. Also, the minimal inhibitory concentration (MIC) in test [7] was in the range of 0.25 to 16 µg/mL (≈ 0.463 to 29.7 µM).
For `CC(n1nnc(CCN2CCN(c3ccccc3)CC2)n1)C(O)(Cn1cncn1)c1ccc(F)cc1F` (stereo not drawn), the MIC in test [1], in test [2], in test [3], in test [4], in test [5] and in test [6] was 1 to 16 µg/mL (≈ 1.96 to 31.4 µM) each time. In addition, the MIC in test [7] was in the range of 1 to 16 µg/mL (≈ 1.96 to 31.4 µM).
Regarding `C[C@H](n1nnnc1CCN1CCN(c2ccc(Cl)cc2)CC1)[C@](O)(Cn1cncn1)c1ccc(F)cc1F`, the minimal inhibitory concentration (MIC) in test [1], in test [2], in test [3], in test [4], in test [5] and in test [6] was 0.12 to 16 µg/mL (≈ 0.221 to 29.4 µM) in each case. In addition, the MIC in test [7] lay in the range of 0.12 to 16 µg/mL (≈ 0.221 to 29.4 µM).
For the compound `CCCCOc1ccccc1N1CCN(CCc2nnn([C@@H](C)[C@](O)(Cn3cncn3)c3ccc(F)cc3F)n2)CC1`, the MIC in test [1], in test [2], in test [3], in test [4], in test [5] and in test [6] was 0.25 to 16 µg/mL (≈ 0.43 to 27.5 µM) throughout. Moreover, the minimum inhibitory concentration (MIC) in test [7] was in the range of 0.25 to 16 µg/mL (≈ 0.43 to 27.5 µM).
For `CC(n1nnc(CCN2CCN(c3ccc(F)cc3)CC2)n1)C(O)(Cn1cncn1)c1ccc(F)cc1F` (stereo not drawn), the MIC in test [1], in test [2], in test [3], in test [4], in test [5] and in test [6] was 1 to 16 µg/mL (≈ 1.9 to 30.3 µM) each time. Further, the minimum inhibitory concentration (MIC) in test [7] fell in the range of 1 to 16 µg/mL (≈ 1.9 to 30.3 µM).
Regarding `CC(n1nnc(CCN2CCN(c3cccc(Cl)c3)CC2)n1)C(O)(Cn1cncn1)c1ccc(F)cc1F` (stereo not drawn), the MIC in test [1], in test [2], in test [3], in test [4], in test [5] and in test [6] was 1 to 16 µg/mL (≈ 1.84 to 29.4 µM) each time. Further, the MIC in test [7] lay in the range of 1 to 16 µg/mL (≈ 1.84 to 29.4 µM).
For `COc1ccc(N2CCN(CCc3nnnn3CC(O)(Cn3cncn3)c3ccc(F)cc3F)CC2)cc1` (stereo not drawn), the minimum inhibitory concentration (MIC) in test [1], in test [2], in test [3], in test [4], in test [5] and in test [6] was 0.5 to 16 µg/mL (≈ 0.951 to 30.4 µM) each time. The minimal inhibitory concentration (MIC) in test [7] lay within 0.5 to 16 µg/mL (≈ 0.951 to 30.4 µM).
For `OC(Cn1cncn1)(Cn1nnnc1CCN1CCN(c2ccccc2)CC1)c1ccc(F)cc1F` (stereo not drawn), the minimum inhibitory concentration (MIC) in test [1], in test [2], in test [3], in test [4], in test [5] and in test [6] was 0.5 to 16 µg/mL (≈ 1.01 to 32.3 µM) each time. The MIC in test [7] was 0.5 to 16 µg/mL (≈ 1.01 to 32.3 µM).
Take `OC(Cn1cncn1)(Cn1nnnc1CCN1CCN(c2ccccn2)CC1)c1ccc(F)cc1F` (stereo not drawn): the minimum inhibitory concentration (MIC) in test [1], in test [2], in test [3], in test [4], in test [5] and in test [6] was 0.5 to 16 µg/mL (≈ 1.01 to 32.2 µM) in each case. For the same compound, in test [7], the minimal inhibitory concentration (MIC) lay within 0.5 to 16 µg/mL (≈ 1.01 to 32.2 µM).
For the compound `C[C@H](n1nnnc1CCN1CCN(c2ccccc2Cl)CC1)[C@](O)(Cn1cncn1)c1ccc(F)cc1F`, the MIC in test [1], in test [2], in test [3], in test [4], in test [5] and in test [6] was 0.12 to 16 µg/mL (≈ 0.221 to 29.4 µM) in each case. For the same compound, the minimal inhibitory concentration (MIC) in test [7] lay in the range of 0.12 to 16 µg/mL (≈ 0.221 to 29.4 µM).

As a reminder, the MIC is the smallest concentration in the dilution series that meets the test's criterion for growth inhibition.
